According to patent US10940139B2, “Compounds that interact with the Ras superfamily for the treatment of cancers, inflammatory diseases, rasopathies, and fibrotic disease” (Shy Therapeutics LLC, priority 2017, dated 2021):

Tested on: MAPK phosphorylation in PANC-1 pancreatic cancer cell line
Assay: MAPK cell-based phosphorylation assay (cell-direct ELISA, EGF stimulation)
Conditions: Homo sapiens, * = tested at 10 μM
How it was run: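 Cell-direct ELISA measured phospho-MAPK, with fluorescence read at 595 nm from AmpliFlu Red. Before fixation, PANC-1 cells starved overnight received 6 hours of compound (30 μM single dose or serial dilutions, 0.3% DMSO, 37° C), followed by 1.5 ng/ml EGF for 15 min.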

Row | Compound | inhibition at 10 µM [%]
1 | Cc1sc2c(O)nc(-c3ccccn3)nc2c1C(=O)N1CCN(c2ccccc2)CC1C (centres unmarked) [drawing 1270] | 1 to 25
2 | Cc1sc2c(O)nc(-c3ccccn3)nc2c1C(=O)N1CCN(Cc2cccc(O)c2)CC1 [drawing 1271] | 25 to 50
3 | Oc1nc(-c2ccccn2)nc2c(C3CCCCC3)csc12 [drawing 1272] | 25 to 50
4 | COc1cnc(-c2nccn2C)nc1O [drawing 1273] | 25 to 50
5 | Nc1cccc(-c2csc3c(O)nc(-c4ccccn4)nc23)n1 [drawing 1274] | 51 to 75
6 | Cc1sc2c(O)nc(-c3ccccn3)nc2c1-c1ccccc1Cl [drawing 1275] | 76 to 100
7 | COc1cnc(-c2cnc[nH]2)nc1O [drawing 1276] | 1 to 25
8 | COc1cnc(CNC(=O)c2csc3nc(-c4ccccn4)nc(N)c23)[nH]c1=O [drawing 1277] | 25 to 50
9 | Oc1nc(-c2ccccn2)nc2c(C3CC3)csc12 [drawing 1278] | 51 to 75
10 | Oc1nc(-c2ccccn2)nc2c(CC3CNC3)csc12 [drawing 1279] | 0
11 | COc1cnc(CNC(=O)c2csc3c(O)nc(-c4ccccn4)nc23)[nH]c1=O [drawing 1280] | 0
12 | COc1cnc(CNC(=O)c2cc3nc(-c4ccccn4)nc(O)c3s2)[nH]c1=O [drawing 1281] | 51 to 75
13 | Cc1sc2c(O)nc(-c3ccccn3)nc2c1Br [drawing 1282] | 76 to 100
14 | COc1cnc(CNC(=O)c2c(C)sc3c(O)nc(-c4ccccn4)nc23)[nH]c1=O [drawing 1283] | 0
15 | COc1cnc(CNC(=O)c2sc3c(O)nc(-c4ccccn4)nc3c2C)[nH]c1=O [drawing 1284] | 0
16 | O=C(c1csc2c(O)nc(-c3ccccn3)nc12)N1CCNC(c2ccc(Cl)cc2)C1 (centres unmarked) [drawing 1285] | 0
17 | Oc1nc(-c2ccccn2)nc2c(CC3CCNC3)csc12 (centres unmarked) [drawing 1286] | 1 to 25
18 | O=c1[nH]c(-c2ccccn2)nc2c([C@@H]3O[C@H](CO)[C@@H](O)[C@H]3O)csc12 [drawing 1287] | 1 to 25
19 | Cn1cnc(-c2nc(O)c3c(-c4ccccc4)c(-c4ccncc4)sc3n2)c1 [drawing 1288] | 25 to 50
20 | COCCNc1nc(-c2ccccn2)nc(-c2cccc(OCCN(C)C)c2)c1Oc1ccccc1 [drawing 1289] | 25 to 50
21 | COCCNc1nc(-c2cn(C)cn2)nc2sc(-c3ccncc3)c(-c3ccccc3)c12 [drawing 1290] | 0
22 | COc1nc(-c2cn(C)cn2)nc2sc(-c3ccncc3)c(-c3ccccc3)c12 [drawing 1291] | 1 to 25
23 | OCC1(c2ccc(-c3nc(-c4ccccn4)nc(-c4ccc(C5(CO)CC5)cc4)c3Oc3ccccc3)cc2)CC1 [drawing 1292] | 51 to 75
24 | COc1ccc(COC[C@H]2O[C@@H](c3csc4c(=O)[nH]c(-c5ccccn5)nc34)[C@H](O)[C@@H]2O)cc1 [drawing 1293] | 0
25 | OCC1(c2ccc(-c3nc(-c4ccccn4)nc(O)c3Oc3ccccc3)cc2)CC1 [drawing 1294] | 1 to 25
26 | COCCNc1nc(-c2nccn2C)nc2sc(-c3ccccc3)c(-c3ccccc3)c12 [drawing 1295] | 76 to 100
27 | Cn1ccnc1-c1nc(O)c2c(-c3ccccc3)c(-c3ccccc3)sc2n1 [drawing 1296] | 0

Row | Compound | inhibition at 10 µM [%]
28 | Cn1cnc(-c2nc(O)c3c(-c4ccccc4)c(-c4ccc(CNC(=O)OC(C)(C)C)cc4)sc3n2)c1 [drawing 1297] | 0
29 | COCCNc1nc(-c2ccccn2)nc2c1c(-c1ccccc1)nn2-c1ccccn1 [drawing 1298] | 1 to 25
30 | Oc1nc(-c2ccccn2)nc2c1c(-c1ccccc1)nn2-c1ccccn1 [drawing 1299] | 0
31 | COc1nc(-c2ccccn2)nc2c1c(-c1ccccc1)nn2-c1ccccn1 [drawing 1300] | 25 to 50
32 | COCC(C)Nc1nc(-c2ccccn2)nc2sc(-c3ccncc3)c(-c3ccccc3)c12 (centres unmarked) [drawing 1301] | 0
33 | Nc1nc(O)c2sc(-c3cccc(C(=O)NC4CCNC4=O)c3)cc2n1 (centres unmarked) [drawing 1302] | 0
34 | Nc1nc(O)c2sc(-c3cccc(C(=O)N4CCC(O)C4)c3)cc2n1 (centres unmarked) [drawing 1303] | 0
35 | NC(=O)C1CCCN1C(=O)c1cccc(-c2cc3nc(N)nc(O)c3s2)c1 (centres unmarked) [drawing 1304] | 1 to 25
36 | Nc1nc(O)c2sc(-c3cccc(C(=O)NCc4ncc[nH]4)c3)cc2n1 [drawing 1305] | 0
37 | Nc1nc(O)c2sc(-c3cccc(C(=O)NCc4cccc(O)n4)c3)cc2n1 [drawing 1306] | 0
38 | COC(=O)c1nc(-c2ccccn2)nc(O)c1O [drawing 1307] | 0
39 | Oc1nc(-c2ccccn2)nc2c(-c3ccccc3)c(-c3ccncc3)sc12 [drawing 1308] | 0
40 | Cn1cnc(-c2nc(O)c3sc(-c4ccncc4)c(-c4ccccc4)c3n2)c1 [drawing 1309] | 0
41 | COCC(C)Nc1nc(-c2ccccn2)nc(C(=O)NCCCc2c[nH]cn2)c1Oc1ccccc1 (centres unmarked) [drawing 1310] | 1 to 25
42 | Nc1nc(-c2ccccn2)nc(C(=O)NCCc2ccncc2)c1Oc1ccccc1 [drawing 1311] | 1 to 25
43 | COc1nc(-c2ccccn2)nc(Oc2cccc(C(F)(F)F)c2)c1OC [drawing 1312] | 0
44 | Oc1nc(-c2ccccn2)nc2c(Br)c(-c3ccccc3)sc12 [drawing 1313] | 0
45 | CC(C)(C)c1sc2c(O)nc(-c3ccccn3)nc2c1Br [drawing 1314] | 1 to 25
46 | Cc1ccc(-c2cc3nc(-c4ccccn4)nc(O)c3s2)cc1 [drawing 1315] | 76 to 100
47 | Oc1nc(-c2ccccn2)nc2cc(-c3ccccc3Cl)sc12 [drawing 1316] | 1 to 25
48 | COc1c(O)nc(-c2ccccn2)nc1Oc1cccc(C(F)(F)F)c1 [drawing 1317] | 1 to 25
49 | Oc1nc(-c2ccccn2)nc(Oc2cccc(C(F)(F)F)c2)c1O [drawing 1318] | 1 to 25
50 | Oc1nc(-c2ccccn2)nc2cc(-c3ccc(-c4ccccc4)cc3)sc12 [drawing 1319] | 25 to 50
51 | Cc1ccc(-c2csc3c(O)nc(-c4ccccn4)nc23)cc1 [drawing 1320] | 1 to 25
52 | Oc1nc(-c2ccccn2)nc2cc(-c3ccncc3)sc12 [drawing 1321] | 0
53 | Oc1nc(-c2ccccn2)nc2cc(-c3ccccc3)sc12 [drawing 1322] | 25 to 50
54 | COc1ccc(-c2cc3nc(-c4ccccn4)nc(O)c3s2)cc1 [drawing 1323] | 1 to 25

Row | Compound | inhibition at 10 µM [%]
55 | Oc1nc(-c2ccccn2)nc2cc(-c3cccc(Br)c3)sc12 [drawing 1324] | 25 to 50
56 | COc1nc(-c2ccccn2)nc(Oc2cccc(C(F)(F)F)c2)c1O [drawing 1325] | 1 to 25
57 | COCCN(C)c1nc(-c2nccn2C)nc2sc(-c3ccccc3)c(-c3ccccc3)c12 [drawing 1326] | 76 to 100
58 | CC(C)OCCNc1nc(-c2nccn2C)nc2sc(-c3ccccc3)c(-c3ccccc3)c12 [drawing 1327] | 76 to 100
59 | Cn1ccnc1-c1nc(NCCOC(F)(F)F)c2c(-c3ccccc3)c(-c3ccccc3)sc2n1 [drawing 1328] | 76 to 100
60 | CC(O)CNc1nc(-c2nccn2C)nc2sc(-c3ccccc3)c(-c3ccccc3)c12 (centres unmarked) [drawing 1329] | 1 to 25
61 | COCCCNc1nc(-c2nccn2C)nc2sc(-c3ccccc3)c(-c3ccccc3)c12 [drawing 1330] | 76 to 100
62 | COC1CCN(c2nc(-c3nccn3C)nc3sc(-c4ccccc4)c(-c4ccccc4)c23)C1 (centres unmarked) [drawing 1331] | 76 to 100
63 | CCOCCOc1nc(-c2nccn2C)nc2sc(-c3ccccc3)c(-c3ccccc3)c12 [drawing 1332] | 0
64 | CCN(CC)CCOc1nc(-c2nccn2C)nc2sc(-c3ccccc3)c(-c3ccccc3)c12 [drawing 1333] | 76 to 100
65 | COCCNc1nc(-c2ccncn2)nc2sc(-c3ccccc3)c(-c3ccccc3)c12 [drawing 1334] | 1 to 25
66 | CCOCCNc1nc(-c2nccn2C)nc2sc(-c3ccccc3)c(-c3ccccc3)c12 [drawing 1335] | 76 to 100
67 | Cn1ccnc1-c1nc(NCCOC2CC2)c2c(-c3ccccc3)c(-c3ccccc3)sc2n1 [drawing 1336] | 76 to 100
68 | COCC(C)Nc1nc(-c2nccn2C)nc2sc(-c3ccccc3)c(-c3ccccc3)c12 (centres unmarked) [drawing 1337] | 76 to 100
69 | CC(CO)Nc1nc(-c2nccn2C)nc2sc(-c3ccccc3)c(-c3ccccc3)c12 (centres unmarked) [drawing 1338] | 25 to 50
70 | Cn1ccnc1-c1nc(NCCCO)c2c(-c3ccccc3)c(-c3ccccc3)sc2n1 [drawing 1339] | 1 to 25
71 | COCCNc1nc(-c2nccn2C)nc2sc(-c3ccccc3)c(-c3ccccc3Cl)c12 [drawing 1340] | 76 to 100
72 | COCCNc1nc(-c2nccn2C)nc2sc(-c3ccccc3Cl)c(-c3ccccc3)c12 [drawing 1341] | 76 to 100
73 | COCCNc1nc(-c2nccn2C)nc2sc(-c3ccncc3)c(-c3ccccc3)c12 [drawing 1342] | 0
74 | COCCNc1nc(-c2cn(C)cn2)nc2sc(-c3ccccc3)c(-c3ccccc3)c12 [drawing 1343] | 76 to 100
75 | COCCNc1nc(-c2nccn2C)nc2sc(C)c(-c3ccccc3)c12 [drawing 1344] | 51 to 75
76 | COCCNc1nc(-c2cn(C)cn2)nc2sc(C)c(-c3ccccc3)c12 [drawing 1345] | 25 to 50
77 | COCCNc1nc(-c2nccn2C)nc2sc(-c3cccc(OC)c3)c(-c3ccccc3)c12 [drawing 1346] | 76 to 100
78 | CC(C)COc1ccc(-c2c(-c3ccccc3)sc3c(O)nc(-c4nccn4C)nc23)cn1 [drawing 1347] | 51 to 75
79 | Cn1ccnc1-c1nc(O)c2sc(-c3ccccc3)c(-c3ccccc3)c2n1 [drawing 1348] | 51 to 75
80 | COCCNc1nc(-c2nccn2C)nc2sc(-c3ccccc3)c(-c3ccc(OC)cc3)c12 [drawing 1349] | 76 to 100
